From patent US20090087497A1, “Compositions and methods for treating symptoms of aging” (Burnham Institute for Medical Research, priority 2007, published 2009)

Tests used:
flies = test: Development of flies under doxycycline; type: in vivo, Drosophila
mice = settings: 2 mg/ml in the drinking water, chronic; cited from earlier work
Drosophila melanogaster = test: Screen of individual and combined compounds on age-related physiological parameters (maximal heart rate and exercise capacity); type: in vivo; settings: separate study of the five best combinations with larger number of flies; FIG. 3
Description: The first dataset of combined interventions. We performed an initial screen of compounds for their effects on cardiac aging in Drosophila, selected for their very general effects on multiple biological functions, known low toxicity and, for some, known effects on aging in other models (Wood et al., Nature 430:686-689, 2004).
After screening 44 compounds individually at multiple doses (a total of 300 groups, each composed of 10-20 flies), we chose two doses each of four compounds for more comprehensive measurements of their combined effects on three age-related phenotypes: maximal heart rate and exercise capacity declines with age and survival. […]

SMILES	effect on development in flies (flies)	effect on body weight (mice)	plasma levels (mice)	functional improvement confirmed in additional tests (climbing velocity and maximal heart rate) (Drosophila melanogaster)
C[C@H]1c2cccc(O)c2C(=O)C2=C(O)[C@]3(O)C(=O)C(C(N)=O)=C(O)[C@@H](N(C)C)[C@@H]3[C@@H](O)[C@@H]21 [doxycycline]	slows development	no effect	close to saturation	–
Oc1ccc(C=Cc2cc(O)cc(O)c2)cc1 [resveratrol]	–	–	–	not
